Reference: patent US10561635B2, “Cromolyn compositions for treatment of pulmonary fibrosis” (Respivant Sciences, GmbH, priority 2016, dated 2020)
Where two headings read alike, the source gives them in different places.

Assays:
[1] = in vivo, cited from earlier work
[2] = PK-01: pharmacokinetics and relative bioavailability of single doses in healthy subjects; format: in vivo, human; conditions: for AUC(0-inf): human, plasma, inhaled, 40 mg, 40 mg single dose
[3] = Pharmacokinetics of cromolyn sodium in plasma and lung of male BALB/c mice after a single intraperitoneal injection; format: in vivo; conditions: single IP injection, 10 mg/kg and 100 mg/kg
Experimental: BALB/c male mice, weighing 22±2 g, were provided by BioLasco Taiwan. All animals were maintained in a well-controlled temperature (20-24° C.) and humidity (30%-70%) environment with 12 hours light/dark cycles. The mice were given free access to a standard lab diet [MFG (Oriental Yeast Co., Ltd., Japan)] and autoclaved tap water.
The solution was administered to the mice by IP injection at concentrations of 10 mg/kg and 100 mg/kg. The dosing volume for both dose strengths was 5 mL/kg.
The mice were sedated under general inhalant anesthesia (3% isoflurane) for blood collection by cardiac puncture. […]
The plasma samples were processed using acetonitrile (ACN) precipitation and analyzed by LC-MS/MS. […] The processed plasma samples were stored at −70° C. until receiving LC-MS/MS analysis, at which time peak areas were recorded, and the concentrations of the test substance in the unknown plasma samples were determined using the respective calibration curve. The reportable linear range of the assay was determined, along with the lower limit of quantitation (LLQ).
Each lung was homogenized in 1.5 mL cold phosphate-buffered saline (PBS) at pH 7.4 for 10 seconds on ice. The lung homogenate was centrifuged at 5,400×g for 15 minutes at 4° C., and the supernatant was subsequently processed using ACN precipitation and analyzed by LC-MS/MS. […]

AUC(0-inf) ([2]; eFlow 30 L): 338 ng·h/mL
AUC(0-inf) ([2]; eFlow 40 L): 212 ng·h/mL
lung deposition with the 30 L device compared with the 40 L device, indicated by AUC ([2]; same dose (40 mg)): surprisingly higher
exposure of cromolyn sodium in the plasma and lungs [3]: Significant exposure
SMILES: O=C([O-])c1cc(=O)c2c(OCC(O)COc3cccc4oc(C(=O)O)cc(=O)c34)cccc2o1.[Na+] [cromolyn sodium, disodium 5,5′-(2-hydroxypropane-1,3-diyl)bis(oxy)bis(4-oxo-4H-chromene-2-carboxylate)]
oral bioavailability ([1]; listed as cromolyn): about 1%
oral bioavailability [1]: ~1%
